Where two headings read alike, the source gives them in different places.
Tests used:
[1] = Toxicity test in mice; assay type: in vivo, FVB mice
Method: Blood was collected from euthanized mice under isoflurane-induced deep anesthesia by cardiac puncture. After allowing blood coagulation at 4 °C, serum was collected by centrifugation at 3,000 rpm for 10 min at 4 °C. Analysis of the serum levels of alanine aminotransferase (ALT) and aspartate aminotransferase (AST) was performed using a veterinary hematology analyzer (Fuji DRI-Chem 3500s, Fujifilm, Tokyo, Japan) according to the manufacturer' s protocols.

[2] = Glucose tolerance test; assay type: in vivo; settings: LL6-administered mice vs vehicle-treated mice
Method: Glucose tolerance tests were performed as described in the previously published literature.

[3] = target: T1, AURKA (Homo sapiens, UniProt O14965); experiment: KINOMEscan competition binding assay; settings: LL6 at 10 μM; read-out: Percent Control
T1 construct: purchased DiscoverX KINOMEscan
Method: […] To briefly summarize, Kd was measured by a competition binding assay that quantitatively measures the ability of a compound to compete with an immobilized ligand. […] […] See more details in the cited references [39]-[42] and see also at www.discoverx.com.

[4] = system: A549 cells; experiment: MTT assay, viability of A549 cells; assay type: cell-based; settings: Homo sapiens
Method: (§1) Cells were seeded into 96-well plates at a density of 1-2 × 10^3 cells/well and incubated for 24 h. Cells were treated with vehicle or various concentrations of test compounds for two (PC9 and PC9/ER cells) or three (other cells) days. Cells were further incubated with MTT solution (final concentration of 500 μg/mL) for 4 h at 37 °C. The formazan products were dissolved in dimethyl sulfoxide (DMSO), and the absorbance was measured at 570 nm. The data are presented as a percentage of the control group.

[5] = system: NSCLC cells; experiment: Anchorage-dependent colony formation assay; assay type: cell-based, human; settings: subset of NSCLC cells
Method: Cells were seeded into 6-well plates at a density of 300 cells/well and treated with LL6. The drug-containing medium was changed once or twice a week. After incubation for 10-14 days, colonies were fixed with 100% methanol, stained with 0.002% crystal violet solution, and washed with deionized water several times. The colonies were imaged and manually counted.

[6] = system: IGF-1R; experiment: Western blot, phosphorylation of IGF-1R in H1944 and A549 cells; assay type: cell-based, human; settings: 2.5 μM
Method: (§2) Before harvesting, the cells were stimulated with 10% FBS for 20 min. Total cell lysates were prepared with modified radioimmunoprecipitation assay lysis buffer (50 mM Tris-HCl [pH 7.4], 150 mM NaCl, 1 mM EDTA, 0.25% sodium deoxycholate, 1% Triton X-100, 100 mM NaF, 5 mM Na3VO4, 1 mM PMSF, 1 μg/mL aprotinin, 1 μg/mL leupeptin, and 1 μg/mL pepstatin). Equal amounts of protein (20 μg) were subjected to 8% SDS-PAGE and electrically transferred onto polyvinylidene difluoride membranes (Bio-Rad Laboratories, Hercules, CA, USA). Membranes were blocked with blocking buffer (3% BSA in Tris-buffered saline containing 0.1% Tween-20 [TBST]) for 1 h at room temperature. The membranes were incubated with primary antibodies diluted in 3% BSA in TBST (1:1,000) overnight at 4 °C, washed multiple times with TBST, and incubated with secondary antibodies diluted in 3% nonfat dry milk in TBST (1:5,000) for 1 h at room temperature. The membranes were washed multiple times with TBST and visualized using an enhanced chemiluminescence detection kit (Thermo Fisher Scientific). Densitometric analysis was performed using ImageJ software.

[7] = system: NSCLC cells; experiment: Anchorage-independent (soft agar) colony formation assay; assay type: cell-based, human; settings: subset of NSCLC cells
Method: Cells (2-3 × 10^3 cells/well) were mixed with sterile 1% agar solution (final concentration of 0.4%) and poured onto 1% base agar in 24-well plates. After solidification of the top agar, LL6 was diluted in complete medium and added to the agar. Cells embedded in the top agar were incubated for 10-14 days at 37 °C with 5% CO2. The LL6-containing medium was changed twice a week. After incubation, the colonies were stained with MTT solution, imaged, and counted using ImageJ software (National Institutes of Health, Bethesda, […], USA).

[8] = system: AXL; experiment: Western blot, phosphorylation of AXL in H1944 and A549 cells; assay type: cell-based, human; settings: 2.5 μM
Method: as §2

[9] = system: LLC allografts; experiment: Spontaneous lung metastasis of LLC allografts; assay type: in vivo, C57BL/6 mice; settings: 80 mg/kg orally, daily for 2 weeks
Method: We used the IVIS-Spectrum microCT and Living Image (ver. 4.2) software (PerkinElmer, Alameda, CA, USA) for monitoring metastatic tumor formation in the lungs. The instrument was operated according to the manufacturer's instruction. To facilitate the detection of photons emitted from metastatic lung tumors, we performed ex vivo imaging analysis. In brief, mice were injected at 60 mg/kg with the 15 mg/mL stock of luciferin prior to anesthesia. After 10-15 min, mice were euthanized, and lung tissues were excised and placed into a 60 mm dish. Tissues were immediately imaged after exposure for 1 min.

[10] = target: IGF-1R; experiment: KINOMEscan competition binding assay; set-up: species or system human
Method: (§3) Kd values were obtained by KINOMEscan from DiscoverX (San Diego, CA, USA). To briefly summarize, Kd was measured by a competition binding assay that quantitatively measures the ability of a compound to compete with an immobilized ligand. […] Dose response curves of 11 points are obtained for Kd values, which are measured in duplicate. See more details in the cited references [39]-[42] and see also at www.discoverx.com.

[11] = target: AXL; experiment: KINOMEscan competition binding assay; set-up: species or system human
Method: as §3

[12] = system: Src; experiment: KINOMEscan competition binding assay; set-up: species or system human
Method: as §3

[13] = system: PC9 cells; experiment: MTT assay, viability of PC9 cells; assay type: cell-based; settings: Homo sapiens, PC-9, 48 h, two days, 5% FBS, read-out: IC50 against the viability
Method: as §1

[14] = LL6-treated mice vs vehicle-treated control

T1 sequence (O14965 whole entry): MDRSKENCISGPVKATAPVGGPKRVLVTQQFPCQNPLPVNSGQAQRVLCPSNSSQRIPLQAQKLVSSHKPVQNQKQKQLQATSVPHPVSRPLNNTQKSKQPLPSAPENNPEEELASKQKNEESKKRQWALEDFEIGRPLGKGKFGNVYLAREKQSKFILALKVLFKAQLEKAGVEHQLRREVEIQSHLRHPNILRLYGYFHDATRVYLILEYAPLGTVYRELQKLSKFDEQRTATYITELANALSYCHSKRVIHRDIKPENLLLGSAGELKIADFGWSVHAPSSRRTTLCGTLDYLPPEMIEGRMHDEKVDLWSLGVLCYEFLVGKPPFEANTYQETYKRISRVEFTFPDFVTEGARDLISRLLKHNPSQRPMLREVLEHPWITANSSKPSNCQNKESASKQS

remaining binding at 10 µM [3]: 48%
IC50 ([4]; 72 h, A549, MTT assay, three days, read-out: IC50 against the viability (Table S4)): 6.63 µM
IC50 ([4]; A549, MTT assay, read-out: IC50 against the viability of A549 cells (Table S2)): 2.59 µM
Kd ([10]; IGF-1R, 11-point dose response, duplicate): 5 µM
inhibition ([10]; IGF-1R, LL6 at 10 µM): > 65%
Percent Control ([10]; LL6 at 10 μM): 16%
Kd ([11]; AXL, 11-point dose response, duplicate): 1.6 µM
inhibition ([11]; AXL, LL6 at 10 µM): > 65%
Percent Control ([11]; LL6 at 10 μM): 22%
Percent Control ([12]; LL6 at 10 μM): 26%
Kd ([12]; Src, 11-point dose response, duplicate): 3.4 µM
inhibition ([12]; Src, LL6 at 10 µM): > 65%
IC50 [13]: > 10 µM
SMILES: Nc1ncnc2c1c(-c1ccc(Cl)cc1)nn2CCn1cc(COc2ccc(Nc3nccc(Nc4cnc5ccccc5c4)n3)cc2)nn1 [LL6]
histological alterations in major organs, including the lung and liver ([1]; H&E-stained tissues): did not cause detectable histological alterations
serum ALT level [1, 14]: remained unchanged
serum AST level [1, 14]: remained unchanged
body weight ([1]; mice, LL6 20, 40, and 80 mg/kg daily for 2 weeks): remained unchanged
glucose clearance [2]: minimal difference
activity at 10 µM ([4]; 72 h, A549, MTT assay, 10 μM, read-out: % cells growth at 10 μM): 6.4%
colony formation, anchorage-dependent [5]: significantly suppressed
activation (phosphorylation) of IGF-1R [6]: efficiently suppressed
colony formation, anchorage-independent [7]: significantly suppressed
activation (phosphorylation) of AXL [8]: efficiently suppressed
metastatic tumor nodules in the lungs [9]: significantly decreased

Reference: PMC7778606, “Development of the phenylpyrazolo[3,4-d]pyrimidine-based, insulin-like growth factor receptor/Src/AXL-targeting small molecule kinase inhibitor” (Theranostics, 2021)
